# Test results from the OPERA property sets (Mansouri et al. 2018).
# Settings: not given
SMILES,boiling point,melting point,log10 vapour pressure (mmHg),log10 Koc (L/kg),ready biodegradability,log10 Henry constant (atm·m³/mol),log10 biodegradation half-life (days)
O=C(Cl)c1cccc([N+](=O)[O-])c1,276 °C,36 °C,–,–,–,–,–
ClC(Cl)C(Cl)(Cl)C(Cl)(Cl)Cl,248 °C,29.4 °C,–,–,–,–,–
CC(C)(C)c1cc(C(C)(C)c2ccc(O)c(C(C)(C)C)c2)ccc1O,–,114 °C,–,–,–,–,–
O=C1CCC(=O)CC1,–,78 °C,–,–,–,–,–
C=C(C)C(C)CC (stereo unspecified),84.3 °C,-134 °C,1.91,–,–,–,–
CCCCC(C)(C)CC,137 °C,–,–,–,–,–,–
O=C(O)C(F)(F)C(F)(F)C(F)(F)C(F)(F)C(F)(F)C(F)F,192 °C,34 °C,–,–,–,–,–
CCCN(CC1CC1)c1c([N+](=O)[O-])cc(C(F)(F)F)cc1[N+](=O)[O-],–,32.3 °C,-4.2,4.01,–,–,–
CSc1ccccc1,193 °C,–,-0.314,–,–,–,–
O=C1Cc2ccccc2N1,–,128 °C,–,–,–,–,–
O=C(Nc1ccccc1)OCC1(COC(=O)Nc2ccccc2)CCCC1,–,152 °C,–,–,–,–,–
N#CCCN,185 °C,–,-0.0655,–,–,–,–
Cc1cccc(NC(=O)c2ccccc2)c1,–,125 °C,–,–,–,–,–
CCCCC(=O)c1ccc(N)cc1,–,74.5 °C,–,–,–,–,–
C1=Cc2cc3ccc(cc4nc(cc5ccc(cc1n2)[nH]5)C=C4)[nH]3,–,360 °C,–,–,–,–,–
CC(C)CCCC(C)CCO (stereo unspecified),212 °C,–,–,–,–,–,–
N#Cc1c[nH]c2ccccc12,–,180 °C,–,–,–,–,–
N#C/C=C/c1ccccc1,264 °C,22 °C,–,–,–,–,–
Oc1cc(O)c(Cl)cc1Cl,254 °C,113 °C,–,–,–,–,–
CC(C)C(=O)C(=O)C(C)C,144 °C,–,–,–,–,–,–
CCCCCCCCCCC1CCCCC1,299 °C,-1.7 °C,-2.99,–,–,–,–
O=C(O)C(F)(F)C(F)(F)C(F)(F)C(F)(F)C(=O)O,–,134 °C,–,–,–,–,–
Nc1nc(Cl)cc(Cl)n1,–,220 °C,–,–,–,–,–
O=C(O)c1ccc(C(=O)O)c(C(=O)O)c1,–,219 °C,–,–,–,–,–
CCCCCCC(=O)CCCCC,–,10 °C,–,–,–,–,–

SMILES,boiling point,melting point,log10 vapour pressure (mmHg),log10 Koc (L/kg),ready biodegradability,log10 Henry constant (atm·m³/mol),log10 biodegradation half-life (days)
CCc1ccc(Br)cc1,204 °C,-43.5 °C,-0.155,–,–,–,–
Brc1ccc2cccnc2c1,290 °C,34 °C,–,–,–,–,–
Nc1c(Br)cc([N+](=O)[O-])cc1Br,–,207 °C,–,–,–,–,–
O=Cc1cccc(F)c1,173 °C,–,–,–,–,–,–
C#C[C@]1(O)CC[C@H]2[C@@H]3CCC4=CCCC[C@@H]4[C@H]3C(=C)C[C@@]21CC,–,110 °C,–,–,–,–,–
CC(C)(C)c1cc(C=O)cc(C(C)(C)C)c1O,–,186 °C,–,–,–,–,–
COC(=O)c1ccc(C)cc1C,232 °C,-2 °C,–,–,–,–,–
C#CCCCCCCC(=O)O,–,19 °C,–,–,–,–,–
Cc1ccc2c(c1C)CCCC2,252 °C,–,–,–,–,–,–
CCCC(C)(C)C(C)C,138 °C,-117 °C,0.993,–,–,–,–
O=C1OC(=O)c2c(Br)c(Br)c(Br)c(Br)c21,–,275 °C,–,–,–,–,–
CCO[Si](c1ccccc1)(c1ccccc1)c1ccccc1,344 °C,65 °C,–,–,–,–,–
COS(=O)(=O)OC,–,-27 °C,-0.169,–,–,–,–
O=C=Nc1cccc2c(N=C=O)cccc12,330 °C,130 °C,-4.47,–,–,–,–
CCN(CC)c1ccc(C)cc1,229 °C,–,–,–,–,–,–
Nc1ccc(S(=O)(=O)Nc2ccnn2-c2ccccc2)cc1,–,181 °C,–,–,–,–,–
Cn1c([N+](=O)[O-])cnc1/C=C/c1ccnc(N)n1,–,234 °C,–,–,–,–,–
COC(=O)c1ccc(O)c(N)c1,–,143 °C,–,–,–,–,–
Brc1cn[nH]c1,255 °C,94.5 °C,–,–,–,–,–
Cc1nccn1C,206 °C,–,–,–,–,–,–
BrCC(Br)CBr,222 °C,16.9 °C,–,–,–,–,–
CC(=O)N1CCN(c2ccc(OC[C@H]3CO[C@](Cn4ccnc4)(c4ccc(Cl)cc4Cl)O3)cc2)CC1,–,146 °C,–,–,–,–,–
O=S1(=O)CCCO1,–,31.5 °C,–,–,readily biodegradable,–,–
NC(=O)NCc1ccccc1,–,148 °C,–,–,–,–,–
ClCCc1ccccc1,–,–,–,–,not readily biodegradable,–,–

SMILES,boiling point,melting point,log10 vapour pressure (mmHg),log10 Koc (L/kg),ready biodegradability,log10 Henry constant (atm·m³/mol),log10 biodegradation half-life (days)
NC(N)=N/C(N)=N/c1ccccc1,–,143 °C,–,–,–,–,–
O=[N+]([O-])c1c(Cl)cccc1-c1c[nH]cc1Cl,–,124 °C,–,–,–,–,–
ClC(Cl)=C(c1ccc(Cl)cc1)c1ccccc1Cl,–,–,-5.21,5.49,–,–,–
CC(=O)CC(=O)c1cccnc1,–,85 °C,–,–,–,–,–
Cc1cccc([N+](=O)[O-])c1O,–,70 °C,–,–,–,-4.47,–
CCCCOCc1ccccc1,223 °C,–,–,–,–,–,–
CCOc1nc(F)cc2nc(S(=O)(=O)Nc3c(Cl)cccc3C(=O)OC)nn12,–,217 °C,–,–,–,–,–
O=CN(c1ccccc1)c1ccccc1,338 °C,73.5 °C,–,–,–,–,–
Fc1ccc(Br)cc1,152 °C,-17.4 °C,–,–,–,–,–
OC1CC=CCC1 (stereo unspecified),164 °C,–,–,–,–,–,–
ICCI,200 °C,83 °C,–,–,–,–,–
CCCCCCC(C)(C)C,155 °C,–,–,–,–,–,–
Cc1cnc(C)[nH]1,267 °C,92 °C,–,–,–,–,–
COc1nc2c(c(=O)n(C)c(=O)n2C)n1C,–,176 °C,–,–,–,–,–
C=C[Si](C)(Cl)Cl,92.5 °C,–,–,–,–,–,–
CCCCSC#N,186 °C,–,–,–,–,–,–
CC(=O)C1CCCCC1,180 °C,–,–,–,–,-4.47,–
CCCCNC(=O)n1cc(F)c(=O)[nH]c1=O,–,136 °C,–,–,–,–,–
CCNC(=O)C1CC(C)CCC1C(C)C (stereo unspecified),–,88 °C,–,–,–,–,–
CCOC(=O)N(C)N=O,–,–,0.0719,–,–,–,–
Cc1c(C(N)=O)cc([N+](=O)[O-])cc1[N+](=O)[O-],–,177 °C,–,–,–,–,–
C=CCCCCC,93.6 °C,-120 °C,1.77,–,–,–,–
O=C(O)c1ccccn1,–,136 °C,–,–,readily biodegradable,–,–
COc1cccc(O)c1,244 °C,–,-1.71,1.5,readily biodegradable,-7.24,–
CC(C)(C(N)=O)n1nc2ccccc2n1,–,174 °C,–,–,–,–,–

SMILES,boiling point,melting point,log10 vapour pressure (mmHg),log10 Koc (L/kg),ready biodegradability,log10 Henry constant (atm·m³/mol),log10 biodegradation half-life (days)
CCCCCCCCCCCC(=O)OCc1ccccc1,–,8.5 °C,–,–,–,–,–
NS(=O)(=O)c1cc(C(=O)c2ccc(O)cc2)cs1,–,192 °C,–,–,–,–,–
CC(C)(Cl)CCC(C)(C)Cl,–,67.5 °C,–,–,–,–,–
Clc1cc(Cl)c(Cl)c(-c2c(Cl)ccc(Cl)c2Cl)c1,–,–,–,–,–,-4.25,–
CCCC(=O)NN,–,45.5 °C,–,–,–,–,–
c1ccc2c(c1)CCc1ccccc1N2C1CN2CCC1CC2 (stereo unspecified),–,150 °C,–,–,–,–,–
C=CC(C)(C)CC,77.5 °C,-134 °C,2.02,–,–,–,–
CCC1(c2ccccc2)C(=O)N(COC)C(=O)N(COC)C1=O,–,117 °C,–,–,–,–,–
NCCc1ccc(O)cc1,–,164 °C,–,–,–,–,–
Clc1ccnc2ccccc12,262 °C,34.5 °C,–,–,–,–,–
CCCCCCCCC=CCCCCCCCC(=O)OCCCC,–,–,–,–,readily biodegradable,–,–
COc1cc(OC)nc(Oc2cccc(Oc3nc(OC)cc(OC)n3)c2C(=O)ON=C(c2ccccc2)c2ccccc2)n1,–,129 °C,–,–,–,–,–
Cc1cccc2c(C)cccc12,265 °C,82 °C,-2.3,–,–,-3.46,–
CC(C)N(C(=O)COc1nnc(C(F)(F)F)s1)c1ccc(F)cc1,–,76 °C,-6.17,–,–,–,–
CC1(C)CC(C)(c2ccccc2)c2ccccc21 (stereo unspecified),308 °C,52.5 °C,–,–,–,–,–
[O-][N+](=Nc1ccccc1)c1ccccc1,–,36 °C,–,3.5,–,–,–
C[C@]12CC[C@@H](O)C[C@@H]1CC[C@@H]1[C@@H]2CC[C@]2(C)C=CC[C@@H]12,–,143 °C,–,–,–,–,–
COC1=C(OC)C(=O)C(C)=CC1=O,–,59.5 °C,–,–,–,–,–
CC(C)CCC(C)(C)C,124 °C,-106 °C,1.22,–,–,–,1.26
COC1(C)CC(c2ccccc2)c2c(c3ccccc3oc2=O)O1 (stereo unspecified),–,166 °C,–,–,–,–,–
ClCc1ccc2ccccc2c1,–,48.5 °C,–,–,–,–,–
CC(C)(C)NSc1nc2ccccc2s1,–,–,-6.34,–,–,–,–
CCCNC(C)C,96.9 °C,–,–,–,–,–,–
CC1CCC(C)CC1 (stereo unspecified),120 °C,-87 °C,1.25,–,–,–,–
Ic1cccs1,181 °C,-40 °C,0.906,–,–,–,–

# Same assay, conditions: fish
SMILES,log10 BCF,log10 biotransformation half-life (days)
CCOP(=S)(NC(C)CC)Oc1cc(C)ccc1[N+](=O)[O-] (stereo unspecified),2.46,-0.2
Clc1cc(Cl)c(Cl)c(-c2c(Cl)ccc(Cl)c2Cl)c1,–,2.32
Clc1cc(Cl)cc(-c2ccccc2)c1,3.77,1.11
